Measurements published in patent US10428080B2, “TBK/IKK inhibitor compounds and uses thereof” (Merck Patent GmbH, priority 2015, dated 2019).
Structures can show the parent of a compound that is named as a salt. Where two headings read alike, the source gives them in different places.

Assays:
[1] = biological target: T1, IKKε (Homo sapiens, UniProt Q14164); assay: IKKe Biochemical Assay; details: read-out: IKKε IC50
T1 sequence (Q14164 1-716): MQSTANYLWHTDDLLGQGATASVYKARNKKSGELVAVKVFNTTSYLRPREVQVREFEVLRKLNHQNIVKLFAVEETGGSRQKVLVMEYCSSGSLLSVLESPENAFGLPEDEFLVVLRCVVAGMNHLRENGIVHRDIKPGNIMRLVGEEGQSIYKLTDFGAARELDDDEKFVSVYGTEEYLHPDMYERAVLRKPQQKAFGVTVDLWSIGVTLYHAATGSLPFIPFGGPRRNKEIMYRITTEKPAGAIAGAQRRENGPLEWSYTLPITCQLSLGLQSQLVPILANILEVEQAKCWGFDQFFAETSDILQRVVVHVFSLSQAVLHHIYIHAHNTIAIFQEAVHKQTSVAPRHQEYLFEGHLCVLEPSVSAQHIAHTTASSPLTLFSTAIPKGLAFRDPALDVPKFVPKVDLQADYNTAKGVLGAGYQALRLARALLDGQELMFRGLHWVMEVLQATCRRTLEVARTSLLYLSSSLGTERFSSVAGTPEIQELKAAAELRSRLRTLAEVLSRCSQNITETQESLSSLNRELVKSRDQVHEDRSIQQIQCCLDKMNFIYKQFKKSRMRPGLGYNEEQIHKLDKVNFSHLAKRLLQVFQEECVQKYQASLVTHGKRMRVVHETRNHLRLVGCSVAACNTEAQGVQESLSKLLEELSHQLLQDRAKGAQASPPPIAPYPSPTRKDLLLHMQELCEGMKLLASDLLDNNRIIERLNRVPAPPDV
Method in brief: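 Recombinant IKKε and substrate were incubated with compound (10-point 1:4 series, top 30 uM final, 1% DMSO) for 90 min at 25° C, then stopped. Substrate-to-product conversion was read by LabChip microfluidic mobility shift; 10 uM staurosporine served as full-inhibition wells.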

[2] = biological target: T2, TBK1 (Homo sapiens, UniProt Q9UHD2); assay: TBK Biochemical Assay; details: read-out: TBK1 IC50
T2 sequence (Q9UHD2 1-729): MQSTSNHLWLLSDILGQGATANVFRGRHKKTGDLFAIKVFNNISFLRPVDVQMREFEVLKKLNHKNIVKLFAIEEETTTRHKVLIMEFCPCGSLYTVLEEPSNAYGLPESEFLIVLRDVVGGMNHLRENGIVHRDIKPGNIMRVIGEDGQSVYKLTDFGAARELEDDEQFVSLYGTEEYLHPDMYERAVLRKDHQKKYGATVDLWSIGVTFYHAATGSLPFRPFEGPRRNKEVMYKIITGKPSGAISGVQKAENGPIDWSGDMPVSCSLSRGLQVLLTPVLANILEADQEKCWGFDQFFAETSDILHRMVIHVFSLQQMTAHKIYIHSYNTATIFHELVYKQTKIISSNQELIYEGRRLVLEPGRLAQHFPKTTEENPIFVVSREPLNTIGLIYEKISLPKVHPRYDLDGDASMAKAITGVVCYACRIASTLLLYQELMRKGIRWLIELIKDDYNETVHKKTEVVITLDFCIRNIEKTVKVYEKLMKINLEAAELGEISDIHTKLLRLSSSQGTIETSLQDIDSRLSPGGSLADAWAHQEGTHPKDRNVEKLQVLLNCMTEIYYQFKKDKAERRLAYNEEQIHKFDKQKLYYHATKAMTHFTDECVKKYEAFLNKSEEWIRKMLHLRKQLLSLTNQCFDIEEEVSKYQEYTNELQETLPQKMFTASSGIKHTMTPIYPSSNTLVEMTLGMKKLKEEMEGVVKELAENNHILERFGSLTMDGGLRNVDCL
Method in brief: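 TBK1 enzyme and substrate incubated with compounds (10-point 1:4 dilution, top 30 uM final, 1% DMSO) for 90 min at 25° C, then stopped. Substrate/product peaks read by microfluidic mobility-shift (Caliper LabChip); 10 uM staurosporine as full-inhibition control.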

[3] = tested on: phosphorylation of the IRF-3 protein in MDA-MB-468 cells; assay: pIRF3 immunocytochemistry cell based assay; details: Homo sapiens
Method in brief: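 MDA-MB-468 cells got compounds (10-point, 3-fold from 10 uM) for 1 h at 37 °C, then 10 ug/ml Poly(I:C) for 2 h. Fixed, permeabilized cells were immunostained for pIRF3 with AlexaFluor488 and counterstained with PI. % phosphorylation was read by laser scanning cytometry, and IC50 curves were fitted.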

[4] = MDA-MB-468 cells, Poly(I:C) stimulation, read-out: pIRF3 IC50

IC50 [1] [nM]	IC50 [2] [nM]	IC50 [3, 4] [nM]	SMILES	IC50 ([3]; MDA-MB-468, read-out: pIRF3 IC50) [nM]
< 100	< 100	100 to 1000	COc1cc(C(=O)N2CCCCN2)cnc1-c1cc2nccc(-c3ccc(OC4CCOCC4)c(C#N)c3)c2o1 [Compound 407, 5-(2-[5-[(1,2-diazinan-1-yl)carbonyl]-3-methoxypyridin-2-yl]furo[3,2-b]pyridin-7-yl)-2-(oxan-4-yloxy)benzonitrile hydrochloride]	–
< 100	< 100	100 to 1000	COc1cc(C(=O)NN)ccc1-c1cc2nccc(-c3ccc(OC4CCOCC4)c(C#N)c3)c2o1 [Compound 110, 4-{7-[3-Cyano-4-(tetrahydro-pyran-4-yloxy)-phenyl]-furo[3,2-b]pyridin-2-yl}-3-methoxy-benzoic acid hydrazide]	–
< 100	< 100	< 100	COc1cc(C(=O)N2CC3CCC2CO3)cnc1-c1cc2nccc(-c3ccc(OC4CCOCC4)c(C#N)c3)c2o1 (stereo not drawn) [Compound 414, hydrochloride]	–
< 100	< 100	< 100	COc1cc(C(=O)N(C)C)ccc1-c1cc2nccc(-c3ccc(OC4CCCNC4)c(C#N)c3)c2o1 (stereo not drawn) [Compound 140, 4-{7-[3-Cyano-4-(piperidin-3-yloxy)-phenyl]-furo[3,2-b]pyridin-2-yl}-3-methoxy-N,N-dimethyl-benzamide Hydrochloride]	–
< 100	< 100	< 100	COc1cc(C(=O)N(C)CCO)ncc1-c1cc2nccc(-c3ccc(N4CC[C@H](F)C4)c(C#N)c3)c2o1 [Compound 379, 5-{7-[3-Cyano-4-((S)-3-fluoro-pyrrolidin-1-yl)-phenyl]-furo[3,2-b]pyridin-2-yl}-4-methoxy-pyridine-2-carboxylic acid (2-hydroxy-ethyl)-methyl-amide]	–
100 to 1000	100 to 1000	100 to 1000	COc1cc(C(=O)N(C)C)ccc1-c1cc2nccc(-c3ccc(O[C@@H]4CCCNC4)c(C#N)c3)c2o1 [Compound 163, 4-{7-[3-Cyano-4-((R)-piperidin-3-yloxy)-phenyl]-furo[3,2-b]pyridin-2-yl}-3-methoxy-N,N-dimethyl-benzamide]	–
< 100	< 100	100 to 1000	COc1cc(C(=O)N(C)C)ccc1-c1cc2nccc(-c3ccc(OC4CCCOC4)c(C#N)c3)c2o1 (stereo not drawn) [Compound 105, 4-{7-[3-Cyano-4-(tetrahydro-pyran-3-yloxy)-phenyl]-furo[3,2-b]pyridin-2-yl}-3-methoxy-N,N-dimethyl-benzamide]	–
< 100	< 100	100 to 1000	COc1cc(C(=O)NC2CCNC2)ccc1-c1cc2nccc(-c3ccc(NC4CCOCC4)c(C#N)c3)c2o1 (stereo not drawn) [Compound 130, 4-{7-[3-Cyano-4-(tetrahydro-pyran-4-ylamino)-phenyl]-furo[3,2-b]pyridin-2-yl}-3-methoxy-N-pyrrolidin-3-yl-benzamide]	–
< 100	< 100	< 100	COc1cc(C(=O)N[C@@H]2[C@@H]3C[C@H]2CN(C)C3)cnc1-c1cc2nccc(-c3ccc(OC4CCOCC4)c(C#N)c3)c2o1 [Compound 398, 6-{7-[3-Cyano-4-(tetrahydro-pyran-4-yloxy)-phenyl]-furo[3,2-b]pyridin-2-yl}-5-methoxy-N-((1R,5S,6S)-3-methyl-3-aza-bicyclo[3.10.1]hept-6-yl)-nicotinamide]	–

The next lines start with the compound.

SMILES	IC50 [1] [nM]	IC50 [2] [nM]	IC50 [3, 4] [nM]	IC50 ([3]; MDA-MB-468, read-out: pIRF3 IC50) [nM]
N#Cc1cc(-c2ccnc3cc(-c4ccc(C(=O)NC5CN6CCC5CC6)cc4)oc23)ccc1OC1CCOCC1 (stereo not drawn) [Compound 145, N-(1-Aza-bicyclo[2.2.2]oct-3-yl)-4-{7-[3-cyano-4-(tetrahydro-pyran-4-yloxy)-phenyl]-furo[3,2-b]pyridin-2-yl}-benzamide]	< 100	< 100	100 to 1000	–
COc1cc(-c2n[nH]c(=O)o2)ccc1-c1cc2nccc(-c3ccc(OC4CCOCC4)c(C#N)c3)c2o1 [Compound 50, 5-{2-[2-Methoxy-4-(5-oxo-4,5-dihydro-[1,3,4]oxadiazol-2-yl)-phenyl]-furo[3,2-b]pyridin-7-yl}-2-(tetrahydro-pyran-4-yloxy)-benzonitrile]	< 100	< 100	100 to 1000	–
COc1cc(C(=O)N2CC(O)C2)ccc1-c1cc2nccc(-c3ccc(NC4CCOCC4)c(C#N)c3)c2o1 [Compound 101, 5-{2-[4-(3-Hydroxy-azetidine-1-carbonyl)-2-methoxy-phenyl]-furo[3,2-b]pyridin-7-yl}-2-(tetrahydro-pyran-4-ylamino)-benzonitrile]	< 100	< 100	100 to 1000	–
COc1cc(C(=O)NC2CC(O)C2)ccc1-c1cc2nccc(-c3ccc(OC4CCOCC4)c(C#N)c3)c2o1 (stereo not drawn) [Compound 75, 4-{7-[3-Cyano-4-(tetrahydro-pyran-4-yloxy)-phenyl]-furo[3,2-b]pyridin-2-yl}-N-(3-hydroxy-cyclobutyl)-3-methoxy-benzamide]	< 100	< 100	100 to 1000	–
COc1cc(C(=O)N2CCCC3(CCNC3)C2)ccc1-c1cc2nccc(-c3ccc(OC4CCOCC4)c(C#N)c3)c2o1 (stereo not drawn) [Compound 25, 5-{2-[4-(2,7-Diaza-spiro[4.5]decane-7-carbonyl)-2-methoxy-phenyl]-furo[3,2-b]pyridin-7-yl}-2-(tetrahydro-pyran-4-yloxy)-benzonitrile]	< 100	< 100	100 to 1000	–
COc1cc(C(=O)N2CCC(F)(F)C2)ccc1-c1cc2nccc(-c3ccc(OC4CCOCC4)c(C#N)c3)c2o1 [Compound 45, 5-{2-[4-(3,3-Difluoro-pyrrolidine-1-carbonyl)-2-methoxy-phenyl]-furo[3,2-b]pyridin-7-yl}-2-(tetrahydro-pyran-4-yloxy)-benzonitrile]	< 100	< 100	100 to 1000	–
COc1cc(C(=O)NC2CN(CC(C)C)C2)ccc1-c1cc2nccc(-c3ccc(OC4CCOCC4)c(C#N)c3)c2o1 [Compound 355, 4-[7-[3-cyano-4-(oxan-4-yloxy)phenyl]furo[3,2-b]pyridin-2-yl]-3-methoxy-N-[1-(2-methylpropyl)azetidin-3-yl]benzamide]	< 100	< 100	–	100 to 1000
COc1cc(C(=O)NC2CCOCC2O)ccc1-c1cc2nccc(-c3ccc(OC4CCOCC4)c(C#N)c3)c2o1 (stereo not drawn) [Compound 11, 4-{7-[3-Cyano-4-(tetrahydro-pyran-4-yloxy)-phenyl]-furo[3,2-b]pyridin-2-yl}-N-(3-hydroxy-tetrahydro-pyran-4-yl)-3-methoxy-benzamide]	< 100	< 100	100 to 1000	–
COc1cc(C(=O)N2CC[C@H](N(C)C)C2)ccc1-c1cc2nccc(-c3ccc(N4CC[C@H](F)C4)c(C#N)c3)c2o1 [Compound 47, 5-{2-[4-((S)-3-Dimethylamino-pyrrolidine-1-carbonyl)-2-methoxy-phenyl]-furo[3,2-b]pyridin-7-yl}-2-((S)-3-fluoro-pyrrolidin-1-yl)-benzonitrile]	< 100	< 100	100 to 1000	–
COc1cc(C(=O)N(C)C)ccc1-c1cc2nccc(-c3ccc(N4CCC(F)C4)c(C#N)c3)c2o1 (stereo not drawn) [Compound 35]	< 100	< 100	100 to 1000	–
